In experiment [1] the test system is U2OS Tet-OFF cells expressing HA-CDC25A. Description: Cell viability of U2OS Tet-OFF cells overexpressing HA-CDC25A. The following applies: grown in the absence of tetracycline (HA-CDC25A induced). Type of experiment: cell-based. The procedure:
65 Enzymatic assays - CDC25A, CDC25B and CDC25C were appropriately diluted in 10
66 mM Tris-HCl pH 8.0, 50 mM NaCl and assayed in 20 mM Tris-HCl pH 8.0, 75 mM
67 NaCl, 0.5 mM EGTA, 1 mM DTT, 0.1 mg/ml BSA and defined concentrations of
68 compounds. Reactions were started by addition of the substrate OMFP (0.1 mM). Assays
69 were carried out at room temperature in duplicate or triplicate using transparent-bottom,
(§1) 70 V-shaped 96 well plates and read at defined intervals on a Molecular Devices
71 SpectraMax microplate reader (ex: 490 nm / em: 525 nm). IC50 and kinetic parameters
72 calculated from Lineweaver-Burk double-reciprocal plots of the data were obtained using
73 GraphPad Prism software.
75 Cell culture - Wild-type HeLa and Kyoto HeLa cells stably expressing mCherry-H2B
76 were maintained in DMEM+L-Glutamine (Gibco, Life Technologies, USA)
77 supplemented with 5% fetal calf serum (FCS) (Gibco) and penicillin-streptomycin (100
78 U/ml - 100 µg/ml) (Gibco). A549 and Colo741 were grown and maintained like HeLa
79 cells but with 10% FCS. HCT116 were maintained in McCoy’s medium supplemented
80 with 10% FCS and penicillin-streptomycin. U2OS-Tet-OFF cells expressing HA-CDC25
81 were grown and maintained in DMEM+L-Glutamine, 10% Tet-free FCS and penicillin- […]
(§2) 88 assessed as described 4. Data were plotted with Prism 7® and analyzed by non-linear […]

In experiment [2] the test system is Apc/K-Ras intestinal organoids. Put plainly: Growth and differentiation of Apc/K-Ras intestinal organoids. Type of experiment: cell-based, mouse. The procedure: Intestinal crypts were isolated from Apc/K-Ras animals bearing Apc^1638N and villin-driven K-Ras^G12V alleles with slight modifications[36] of a previously described method. Briefly, crypts were isolated and purified, embedded in 50 μl matrigel drops (Corning, 356231) and overlaid with 500 μl organoid medium Advanced DMEM/F12 (Life Technologies, 11320-082) containing 2 mM GlutaMAX (Life Technologies, 35050-061), 10 mM HEPES buffer (Sigma, 83264-100ML-F), 0.5 U/ml Penicillin/Streptomycin (Life Technologies, 15070-063), N2 (Life Technologies, 17502-048), B27 (Life Technologies, 12587-010)]. Organoids were expanded for 5 days in growth factor supplemented medium containing 50 ng/ml mEGF (Life Technologies, PMG8041), 100 ng/ml mNoggin (Peprotech, 250–38) and 500 ng/ml hRSPO1 (R&D, 4645-RS-025). EGF and R-spondin were subsequently removed to select for organoids that had lost the wild-type Apc copy. The medium was changed every 2 days. Established mutant lines were passaged every four days by mechanical disruption with a bent P1000 pipette tip.
(§3) 34 SUPPLEMENTARY MATERIALS AND METHODS
(§4) 36 Antibodies and chemicals - The following antibodies were used for Western blot:
(§5) 37 Rabbit monoclonal antibodies to CDK1-pThr14 (#2543), CDK1-pTyr15 (#9111), Histone
(§6) 39 Technology (Beverly, MA, USA). Mouse monoclonal antibodies to CDC25A (F-6, sc-
(§7) 41 from Santa Cruz Biotechnology (Santa Cruz, CA, USA). The mouse monoclonal
(§8) 42 antibody MPM2 (05-368) was from Upstate (Lake Placid, NY, USA). The mouse
(§9) 43 monoclonal antibody to the HA tag (HA.11, MMS-101P) was from BioLegend (S. Diego,
(§10) 44 CA, USA). The rabbit polyclonal antibody to PARP-1 (#227244) was obtained from
(§11) 45 Abcam. HRP-conjugated anti-mouse and anti-rabbit secondary antibodies were obtained
(§12) 46 from GE-Healthcare (Otelfingen, Switzerland). HRP-conjugated IgG-k-BP was
(§13) 47 purchased from Santa Cruz Biotechnology (Santa Cruz, CA, USA).
(§14) 48 The following antibodies were used for immunofluorescence on a Zeiss LSM 710
(§15) 49 confocal microscope: mouse monoclonal to beta-catenin (Cl. 14, BD transduction Lab.),
50 rabbit polyclonal to lysozyme (A0099, Dako). […]

The target of another experiment is T1, CDC25C (Homo sapiens, UniProt P30307).
T1 construct: GST (pGEX vector) (N); made in house; host or cells: E. coli BL21
T1 sequence (P30307 whole entry): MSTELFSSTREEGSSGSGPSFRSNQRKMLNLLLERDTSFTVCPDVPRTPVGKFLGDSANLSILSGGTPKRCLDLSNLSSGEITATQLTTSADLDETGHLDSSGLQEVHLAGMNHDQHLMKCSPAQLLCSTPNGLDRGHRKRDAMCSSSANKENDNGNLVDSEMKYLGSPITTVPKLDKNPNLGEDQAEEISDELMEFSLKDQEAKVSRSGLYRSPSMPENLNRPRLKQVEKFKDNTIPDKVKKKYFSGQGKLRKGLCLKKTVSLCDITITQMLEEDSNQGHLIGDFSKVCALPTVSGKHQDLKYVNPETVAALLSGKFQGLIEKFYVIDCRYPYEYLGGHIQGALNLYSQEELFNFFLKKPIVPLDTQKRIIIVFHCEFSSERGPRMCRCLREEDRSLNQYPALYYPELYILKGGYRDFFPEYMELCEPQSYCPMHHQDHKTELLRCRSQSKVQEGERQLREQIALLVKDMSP
Description: Enzymatic assay (OMFP substrate) on recombinant CDC25C. Type of experiment: biochemical. The conditions noted are these: mixed-model inhibition equation.
Source text: as §3, §4, §5, §6, §7, §8, §9, §10, §11, §12, §13, §14, §15
(§16) 50 rabbit polyclonal to lysozyme (A0099, Dako). Secondary antibodies were: Alexa 488 […]
as §1
(§17) 71 SpectraMax microplate reader (ex: 490 nm / em: 525 nm). […]
(§18) 72 calculated from Lineweaver-Burk double-reciprocal plots of the data were obtained using […]
as §2

A further experiment addresses T2, CDC25B (Homo sapiens, UniProt P30305).
T2 construct: GST (pGEX vector) (N); made in house; host or cells: E. coli BL21
Description: Enzymatic assay (OMFP substrate) on recombinant CDC25B. The class given is biochemical. The conditions noted are these: mixed-model inhibition equation.
Source text: as §3, §4, §5, §6, §7, §8, §9, §10, §11, §12, §13, §14, §15, §16, §1, §17, §18, §2

We go through two compounds from article PMC6362118, “Pharmacophore-guided discovery of CDC25 inhibitors causing cell cycle arrest and tumor regression” (Scientific Reports, 2019).

T2 sequence (P30305 whole entry): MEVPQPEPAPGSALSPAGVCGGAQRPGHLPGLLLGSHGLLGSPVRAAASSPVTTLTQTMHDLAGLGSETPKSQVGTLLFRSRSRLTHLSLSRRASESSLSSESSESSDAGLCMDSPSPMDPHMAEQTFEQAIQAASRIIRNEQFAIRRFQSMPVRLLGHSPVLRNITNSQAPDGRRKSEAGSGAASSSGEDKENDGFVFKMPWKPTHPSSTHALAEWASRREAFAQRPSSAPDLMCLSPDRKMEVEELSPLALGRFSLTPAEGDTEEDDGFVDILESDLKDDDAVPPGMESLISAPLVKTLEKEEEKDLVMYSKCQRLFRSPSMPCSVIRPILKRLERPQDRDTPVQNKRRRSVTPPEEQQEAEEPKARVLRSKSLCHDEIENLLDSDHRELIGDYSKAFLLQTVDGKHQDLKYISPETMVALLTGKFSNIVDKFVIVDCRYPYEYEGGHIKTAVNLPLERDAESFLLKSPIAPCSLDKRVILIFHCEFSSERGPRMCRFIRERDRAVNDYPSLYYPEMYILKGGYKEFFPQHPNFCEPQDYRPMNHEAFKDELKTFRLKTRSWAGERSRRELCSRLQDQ

In the case of `O=C1C(c2ccc(O)cc2O)=CC(=O)c2c(O)cccc21` [UPD-176, 5-hydroxy-2-(2,4-dihydroxyphenyl)naphthalene-1,4-dione], the “sensitivity of CDC25A overexpressing cells (viability)” value in experiment [1] is “remained sensitive”. The “expression of lysozyme (differentiation marker), confocal immunofluorescence” value in experiment [2] (5 μM) is “augmented expression of lysozyme”. Moreover, in experiment [2] (5 μM, 48 h), the organoid morphology entry is on record as “growing spheroids partially invaginated”. Further, the organoid death entry in experiment [2] (higher doses (data not shown)) is given as “massive death”.

On to `COc1cccc(SC2=CC(=O)c3cccc(O)c3C2=O)c1` [UPD-795, 2-(3-methoxyphenylthio)-8-hydroxynaphthalene-1,4-dione], for which the Ki at CDC25C was 850 ± 300 nM; on CDC25B, 440 ± 100 nM.

In general, Ki refers to the equilibrium dissociation constant of an inhibitor or competing ligand from its target.
